Among the data in patent US8822471B2, “Compounds, pharmaceutical compositions and uses thereof” (Boehringer Ingelheim International GmbH, priority 2011, dated 2014) are EC50 values, retold here.

The assay concerns the target T1, human GPR119 (Homo sapiens, UniProt Q8TDV5).
T1 construct: expression vector for human GPR119 cDNA (Acc. No. NP_848566); expressed in transfected cells
T1 sequence (Q8TDV5 1-335): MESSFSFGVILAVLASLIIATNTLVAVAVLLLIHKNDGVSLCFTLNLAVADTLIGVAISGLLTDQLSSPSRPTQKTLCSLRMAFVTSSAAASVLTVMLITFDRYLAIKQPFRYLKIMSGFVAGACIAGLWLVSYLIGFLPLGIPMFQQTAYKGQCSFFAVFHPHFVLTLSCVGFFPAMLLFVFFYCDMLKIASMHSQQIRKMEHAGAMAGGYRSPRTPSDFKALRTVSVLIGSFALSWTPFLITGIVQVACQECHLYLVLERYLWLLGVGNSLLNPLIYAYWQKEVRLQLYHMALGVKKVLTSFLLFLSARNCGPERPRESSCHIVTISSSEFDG
As to the kind of experiment: AlphaScreen cAMP assay in MIN6 cells stably transfected with human GPR119. It counts as cell-based. As to conditions: Min-6/hGPR119 cells, AlphaScreen cAMP Assay Kit, 45 minutes incubation at room temperature. As for the experimental part: The compounds of formula I according to the invention modulate the activity of the G-protein-coupled receptor GPR119. The effect of the compounds on the activation of GPR119 and on the stimulation of intracellular cAMP concentration is determined using the AlphaScreen cAMP Assay Kit (Cat. No. #6760625R) made by PerkinElmer.
MIN6 cells [Miyazaki J et al. Endocrinology. 1990 July; 127(1):126-32] are stably transfected with an expression vector for human GPR119 cDNA (Acc. No. NP_848566). Min-6/hGPR119 cells are cultured in DMEM, 10% FBS, 50 μM β-mercaptoethanol, 0.3 mg/mL Geniticin, 2 mM GlutaMAX at 37° C. 5% CO2. For the assay, the cells are seeded in Optiplates (white, 384-well, 160 W-barcoded, TC, sterile with lid, Cat. No. #6007688 (Perkin Elmer); 10000 cells/well; 50 μl). The plates covered with lids are then incubated for 24 hours at 37° C./5% CO2. After the medium is aspirated from the wells completely, 10 μl of the test compound are added, the compounds are diluted using stimulating buffer (140 mM NaCl, 3.6 mM KCl, 0.5 mM NaH2PO4, 0.5 mM MgSO4, 1.5 mM CaCl2, 10 mM Hepes, 5 mM NaHCO3; pH 7.4. 0.5 mM IBMX and 0.1% BSA, the final DMSO concentration is 1%). After 45 minutes incubation at room temperature (approx. 20° C.), the cAMP concentrations are determined using the AlphaScreen cAMP Assay Kit (Cat. No. #6760625R from PerkinElmer).
On the technique in general: In Alpha technology, singlet oxygen from a donor bead excites a nearby acceptor bead.

The structures appear in SMILES notation.

For orientation: EC50 means the concentration giving half of the maximal effect. The low end stands for greater potency, the high end for weaker potency.

The molecule `CC(C)c1noc(N2CCC(N(C(=O)c3ccc(-c4cnco4)cc3)C3CC3)CC2)n1` [Example 1, N-Cyclopropyl-N-[1-(3-isopropyl-[1,2,4]oxadiazol-5-yl)-piperidin-4-yl]-4-oxazol-5-yl-benzamide] yielded an EC50 of 15 nM.
Then `CC(C)Cc1noc(N2CCC(N(C(=O)c3ccc(-c4cnco4)cc3)C3CC3)CC2)n1` [Example 2, N-Cyclopropyl-N-[1-(3-isobutyl-[1,2,4]oxadiazol-5-yl)-piperidin-4-yl]-4-oxazol-5-yl-benzamide], with 15 nM; and `CC(C)(C)c1noc(N2CCC(N(C(=O)c3ccc(-c4cnco4)cc3)C3CC3)CC2)n1` [Example 3, N-[1-(3-tert-Butyl-[1,2,4]oxadiazol-5-yl)-piperidin-4-yl]-N-cyclopropyl-4-oxazol-5-yl-benzamide], with 19 nM.
Then `COCc1noc(N2CCC(N(C(=O)c3ccc(-c4cnco4)cc3)C3CC3)CC2)n1` [Example 4, N-Cyclopropyl-N-[1-(3-methoxymethyl-[1,2,4]oxadiazol-5-yl)-piperidin-4-yl]-4-oxazol-5-yl-benzamide], with 160 nM; and `O=C(c1ccc(-c2cnco2)cc1)N(C1CC1)C1CCN(c2nc(-c3ccc(I)cc3)no2)CC1` [Example 5, N-Cyclopropyl-N-{1-[3-(4-iodo-phenyl)-[1,2,4]oxadiazol-5-yl]-piperidin-4-yl}-4-oxazol-5-yl-benzamide], with 14 nM; and `O=C(c1ccc(-c2cnco2)cc1)N(C1CC1)C1CCN(c2nc(-c3ccccc3)no2)CC1` [Example 6, N-Cyclopropyl-4-oxazol-5-yl-N-[1-(3-phenyl-[1,2,4]oxadiazol-5-yl)-piperidin-4-yl]-benzamide], with 23 nM.
`O=C(c1ccc(-c2cnco2)cc1)N(C1CC1)C1CCN(c2nc(Cc3ccccc3)no2)CC1` [Example 7, N-[1-(3-Benzyl-[1,2,4]oxadiazol-5-yl)-piperidin-4-yl]-N-cyclopropyl-4-oxazol-5-yl-benzamide] yielded an EC50 of 69 nM. This EC50 lies about 3-fold higher than the previous one.
Then `CCCc1noc(N2CCC(N(C(=O)c3ccc(-c4cnco4)cc3)C3CC3)CC2)n1` [Example 8, N-Cyclopropyl-4-oxazol-5-yl-N-[1-(3-propyl-[1,2,4]oxadiazol-5-yl)-piperidin-4-yl]-benzamide], with 36 nM; and `O=C(c1ccc(-c2cnco2)cc1)N(C1CC1)C1CCN(c2nc(-c3ccncc3)no2)CC1` [Example 9, N-Cyclopropyl-4-oxazol-5-yl-N-[1-(3-pyridin-4-yl-[1,2,4]oxadiazol-5-yl)-piperidin-4-yl]-benzamide], with 80 nM.
Then `O=C(c1ccc(-c2cnco2)cc1)N(C1CC1)C1CCN(c2nc(-c3ccc(F)cc3)no2)CC1` [Example 10, N-Cyclopropyl-N-{1-[3-(4-fluoro-phenyl)-[1,2,4]oxadiazol-5-yl]-piperidin-4-yl}-4-oxazol-5-yl-benzamide], with 13 nM; and `O=C(c1ccc(-c2cnco2)cc1)N(C1CC1)C1CCN(c2nc(-c3cccc(Br)c3)no2)CC1` [Example 11, N-{1-[3-(3-Bromo-phenyl)-[1,2,4]oxadiazol-5-yl]-piperidin-4-yl}-N-cyclopropyl-4-oxazol-5-yl-benzamide], with 97 nM.
The molecule `CCc1noc(N2CCC(N(C(=O)c3ccc(-c4cnco4)cc3)C3CC3)CC2)n1` [Example 12, N-Cyclopropyl-N-[1-(3-ethyl-[1,2,4]oxadiazol-5-yl)-piperidin-4-yl]-4-oxazol-5-yl-benzamide] gave an EC50 of 51 nM.
In turn, `C=CCc1noc(N2CCC(N(C(=O)c3ccc(-c4cnco4)cc3)C3CC3)CC2)n1` [Example 13, N-[1-(3-Allyl-[1,2,4]oxadiazol-5-yl)-piperidin-4-yl]-N-cyclopropyl-4-oxazol-5-yl-benzamide] came in with an EC50 of 26 nM.
Then `O=C(c1ccc(-c2cnco2)cc1)N(C1CC1)C1CCN(c2nc(-c3ccsc3)no2)CC1` [Example 14, N-Cyclopropyl-4-oxazol-5-yl-N-[1-(3-thiophen-3-yl-[1,2,4]oxadiazol-5-yl)-piperidin-4-yl]-benzamide], with 27 nM.
Turning to `O=C(c1ccc(-c2cnco2)cc1)N(C1CC1)C1CCN(c2nc(-c3cccnc3)no2)CC1` [Example 15, N-Cyclopropyl-4-oxazol-5-yl-N-[1-(3-pyridin-3-yl-[1,2,4]oxadiazol-5-yl)-piperidin-4-yl]-benzamide], the EC50 is 153 nM.
Take `Cc1nc(-c2noc(N3CCC(N(C(=O)c4ccc(-c5cnco5)cc4)C4CC4)CC3)n2)cs1` [Example 16, N-Cyclopropyl-N-{1-[3-(2-methyl-thiazol-4-yl)-[1,2,4]oxadiazol-5-yl]-piperidin-4-yl}-4-oxazol-5-yl-benzamide]: the EC50 was 206 nM.
`O=C(c1ccc(-c2ccncc2)cc1)N(C1CC1)C1CCN(c2nc(-c3ccccc3)no2)CC1` [Example 17, N-Cyclopropyl-N-[1-(3-phenyl-[1,2,4]oxadiazol-5-yl)-piperidin-4-yl]-4-pyridin-4-yl-benzamide] gave an EC50 of 23 nM.
`O=C(c1ccc(-c2cnco2)cc1)N(C1CC1)C1CCN(c2nc(-c3ccccn3)no2)CC1` [Example 18, N-Cyclopropyl-4-oxazol-5-yl-N-[1-(3-pyridin-2-yl-[1,2,4]oxadiazol-5-yl)-piperidin-4-yl]-benzamide] yielded an EC50 of 275 nM.
Then `CCc1cnc(N2CCC(N(C(=O)c3ccc(-c4cnco4)cc3)C3CC3)CC2)nc1` [Example 19, N-Cyclopropyl-N-[1-(5-ethyl-pyrimidin-2-yl)-piperidin-4-yl]-4-oxazol-5-yl-benzamide], with 32 nM; and `O=C(c1ccc(-c2cnco2)cc1)N(C1CC1)C1CCN(c2ncccn2)CC1` [Example 20, N-Cyclopropyl-4-oxazol-5-yl-N-(1-pyrimidin-2-yl-piperidin-4-yl)-benzamide], with 393 nM.
Then `N#Cc1ccc(N2CCC(N(C(=O)c3ccc(-c4cnco4)cc3)C3CC3)CC2)nc1` [Example 21, N-[1-(5-Cyano-pyridin-2-yl)-piperidin-4-yl]-N-cyclopropyl-4-oxazol-5-yl-benzamide], with 143 nM; and `O=C(c1ccc(-c2cnco2)cc1)N(C1CC1)C1CCN(c2nc3ccccc3o2)CC1` [Example 22, N-(1-Benzooxazol-2-yl-piperidin-4-yl)-N-cyclopropyl-4-oxazol-5-yl-benzamide], with 60 nM; and `CCCc1cnc(N2CCC(N(C(=O)c3ccc(-c4cnco4)cc3)C3CC3)CC2)nc1` [Example 23, N-Cyclopropyl-4-oxazol-5-yl-N-[1-(5-propyl-pyrimidin-2-yl)-piperidin-4-yl]-benzamide], with 44 nM.
Regarding `O=C(c1ccc(-c2cnco2)cc1)N(C1CC1)C1CCN(c2ncc(-c3ccc(Cl)cc3)cn2)CC1` [Example 24, N-{1-[5-(4-Chloro-phenyl)-pyrimidin-2-yl]-piperidin-4-yl}-N-cyclopropyl-4-oxazol-5-yl-benzamide], the EC50 is 232 nM.
Molecule `O=C(c1ccc(-c2cnco2)cc1)N(C1CC1)C1CCN(c2ncc(Br)cn2)CC1` [Example 25, N-[1-(5-Bromo-pyrimidin-2-yl)-piperidin-4-yl]-N-cyclopropyl-4-oxazol-5-yl-benzamide] came in with an EC50 of 17 nM. Against the preceding molecule, the EC50 is about 14-fold lower.
Then `COc1cnc(N2CCC(N(C(=O)c3ccc(-c4cnco4)cc3)C3CC3)CC2)nc1` [Example 26, N-Cyclopropyl-N-[1-(5-methoxy-pyrimidin-2-yl)-piperidin-4-yl]-4-oxazol-5-yl-benzamide], with 47 nM.
As to `COc1ccc(-c2cnc(N3CCC(N(C(=O)c4ccc(-c5cnco5)cc4)C4CC4)CC3)nc2)cc1` [Example 27, N-Cyclopropyl-N-{1-[5-(4-methoxy-phenyl)-pyrimidin-2-yl]-piperidin-4-yl}-4-oxazol-5-yl-benzamide], the half-maximal effective concentration (EC50) was found to be 71 nM. This EC50 lies about 1.5-fold higher than the previous one.
Then `O=C(c1ccc(-c2cnco2)cc1)N(C1CC1)C1CCN(c2ccccn2)CC1` [Example 28, N-Cyclopropyl-4-oxazol-5-yl-N-(1-pyridin-2-yl-piperidin-4-yl)-benzamide], with 676 nM.
With `O=C(c1ccc(-c2cnco2)cc1)N(C1CC1)C1CCN(c2ncc(F)cn2)CC1` [Example 29, N-Cyclopropyl-N-[1-(5-fluoro-pyrimidin-2-yl)-piperidin-4-yl]-4-oxazol-5-yl-benzamide], the EC50 was determined as 78 nM. Compared with the last molecule, the EC50 is about 8.7-fold lower.
Then `O=C(c1ccc(-c2cnco2)cc1)N(C1CC1)C1CCN(c2ncc(Cl)cn2)CC1` [Example 30, N-[1-(5-Chloro-pyrimidin-2-yl)-piperidin-4-yl]-N-cyclopropyl-4-oxazol-5-yl-benzamide], with 19 nM.
